According to ChEMBL document CHEMBL4033685, “C21-steroidal pregnane sapogenins and their derivatives as anti-inflammatory agents” (Bioorg Med Chem, 2017):
Active and inactive are the calls of the source. The calls are words filed in the database; no cut-off is given here.

Assays:
[1] = biological target: Transcription factor p65 (Homo sapiens) (UniProt Q04206); assay: Inhibition of TNFalpha-stimulated NF-kB p65 activation (unknown origin) expressed in human AD293 cells assessed as nuclear translocation of p65 at 10 uM after 3 hrs by confocal microscopic method; assay type: cell-based
[2] = biological target: T1, NF-kappa-B inhibitor alpha (Homo sapiens) (UniProt P25963); assay: Inhibition of TNFalpha-stimulated IkBalpha phosphorylation in human AD293 cells at 10 uM after 3 hrs by Western blot analysis; assay type: cell-based
T1 sequence (whole entry): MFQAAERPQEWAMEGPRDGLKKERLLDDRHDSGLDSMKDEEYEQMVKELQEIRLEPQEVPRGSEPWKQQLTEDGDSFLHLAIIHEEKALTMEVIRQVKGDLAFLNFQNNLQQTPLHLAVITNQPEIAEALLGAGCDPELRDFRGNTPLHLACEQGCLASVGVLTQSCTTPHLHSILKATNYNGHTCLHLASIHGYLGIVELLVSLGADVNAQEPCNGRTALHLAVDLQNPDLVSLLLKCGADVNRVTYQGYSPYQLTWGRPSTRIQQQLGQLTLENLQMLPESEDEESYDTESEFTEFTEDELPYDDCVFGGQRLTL

[3] = biological target: T2, Toll-like receptor 4 (Homo sapiens, UniProt O00206); assay: Antagonist activity at TLR4 in human THP1 cells assessed as inhibition of LPS-stimulated IL-1beta level at 10 uM by bead based immunoassay; assay type: cell-based
[4] = tested on: AD293; assay: Effect on IkBalpha protein expression in TNFalpha-stimulated human AD293 cells at 10 uM after 3 hrs by Western blot analysis; assay type: functional, cell-based
[5] = tested on: AD293; assay: Upregulation of IKKalpha protein expression in human AD293 cells at 10 uM after 3 hrs by Western blot analysis; assay type: functional, cell-based
[6] = biological target: T2, Toll-like receptor 4; assay: Antagonist activity at TLR4 in human THP1 cells assessed as inhibition of LPS-stimulated TNFalpha level at 10 uM by bead based immunoassay; assay type: cell-based
[7] = biological target: Toll-like receptor 2 (Homo sapiens) (UniProt O60603); assay: Antagonist activity at TLR2 in human THP1 cells assessed as inhibition of PGN-stimulated TNFalpha level at 10 uM by bead based immunoassay; assay type: cell-based
[8] = tested on: AD293; assay: Upregulation of IKKalpha protein expression in TNFalpha-stimulated human AD293 cells at 10 uM after 3 hrs by Western blot analysis; assay type: functional, cell-based
[9] = biological target: T2, Toll-like receptor 4; assay: Antagonist activity at TLR4 in human THP1 cells harboring human TRAF6 assessed as inhibition of LPS-stimulated IL-1beta level at 10 uM by bead based immunoassay; assay type: cell-based
[10] = biological target: T2, Toll-like receptor 4; assay: Antagonist activity at TLR4 (unknown origin) expressed in human AD293 cells assessed as inhibition of LPS/ATP-stimulated TLR4/NF-kB signaling pathway after 16 hrs by luciferase reporter gene assay; assay type: cell-based
[11] = biological target: Toll-like receptor 3 (Homo sapiens) (UniProt O15455); assay: Antagonist activity at TLR3 in human THP1 cells assessed as inhibition of poly IC-stimulated TNFalpha level at 10 uM by bead based immunoassay; assay type: cell-based
[12] = tested on: AD293; assay: Cytotoxicity against human AD293 cells assessed as reduction in cell viability after 24 hrs by methylene blue dye based spectrophotometric method; settings: ad293, 24 h
[13] = biological target: T2, Toll-like receptor 4; assay: Antagonist activity at TLR4 in human THP1 cells harboring human TRAF6 assessed as inhibition of LPS-stimulated TNFalpha level at 10 uM by bead based immunoassay; assay type: cell-based
[14] = species on record: Homo sapiens; assay: Inhibition of TNFalpha-stimulated NF-kB signaling pathway (unknown origin) expressed in human AD293 cells after 4 hrs by luciferase reporter gene assay; assay type: cell-based
[15] = tested on: THP-1; assay: Upregulation of IKKalpha protein expression in LPS-stimulated human THP1 cells at 10 uM after 3 hrs by Western blot analysis; assay type: functional, cell-based
[16] = biological target: T3, Nuclear factor NF-kappa-B p100 subunit (Homo sapiens) (UniProt Q00653); assay: Effect on p100/p52 phosphorylation in human THP1 cells at 10 uM after 3 hrs by Western blot analysis; assay type: cell-based
T3 sequence (whole entry): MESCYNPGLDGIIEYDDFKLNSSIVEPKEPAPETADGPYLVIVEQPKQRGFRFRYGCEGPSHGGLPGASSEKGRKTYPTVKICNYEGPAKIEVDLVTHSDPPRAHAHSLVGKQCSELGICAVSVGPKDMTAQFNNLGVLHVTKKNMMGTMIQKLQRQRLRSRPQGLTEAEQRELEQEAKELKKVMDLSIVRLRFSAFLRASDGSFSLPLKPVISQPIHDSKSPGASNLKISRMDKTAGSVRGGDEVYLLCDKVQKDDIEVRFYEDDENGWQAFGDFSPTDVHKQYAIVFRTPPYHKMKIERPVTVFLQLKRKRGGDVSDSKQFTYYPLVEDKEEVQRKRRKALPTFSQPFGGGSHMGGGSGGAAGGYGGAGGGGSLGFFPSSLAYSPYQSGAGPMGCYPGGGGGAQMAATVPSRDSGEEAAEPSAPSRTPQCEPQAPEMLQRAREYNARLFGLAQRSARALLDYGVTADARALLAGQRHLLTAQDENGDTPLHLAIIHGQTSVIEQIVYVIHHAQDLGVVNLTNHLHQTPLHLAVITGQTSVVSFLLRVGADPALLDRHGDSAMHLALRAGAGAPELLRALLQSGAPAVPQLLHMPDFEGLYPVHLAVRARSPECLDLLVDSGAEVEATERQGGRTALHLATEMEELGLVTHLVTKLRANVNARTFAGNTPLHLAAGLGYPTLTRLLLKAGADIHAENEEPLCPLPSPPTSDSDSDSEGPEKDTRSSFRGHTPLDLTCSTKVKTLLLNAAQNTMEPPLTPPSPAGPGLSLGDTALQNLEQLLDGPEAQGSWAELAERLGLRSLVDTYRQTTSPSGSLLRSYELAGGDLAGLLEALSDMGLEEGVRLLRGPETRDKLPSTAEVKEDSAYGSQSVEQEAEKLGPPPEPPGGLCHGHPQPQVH

[17] = biological target: T2, Toll-like receptor 4; assay: Antagonist activity at TLR4 in human THP1 cells assessed as inhibition of LPS-stimulated NF-kB non-canonical signaling pathway by measuring decrease in p100/p52 phosphorylation at 10 uM after 3 hrs by Western blot analysis; assay type: cell-based
[18] = biological target: Toll-like receptor 3 (Homo sapiens) (UniProt O15455); assay: Antagonist activity at TLR3 in human THP1 cells assessed as inhibition of poly IC-stimulated IL-1beta level at 10 uM by bead based immunoassay; assay type: cell-based
[19] = biological target: Transcription factor p65 (Homo sapiens) (UniProt Q04206); assay: Inhibition of TNFalpha-stimulated NF-kB p65 phosphorylation (unknown origin) expressed in human AD293 cells at 10 uM after 3 hrs by Western blot analysis; assay type: cell-based
[20] = biological target: T2, Toll-like receptor 4; assay: Antagonist activity at TLR4 in human THP1 cells assessed as inhibition of LPS-stimulated NF-kB non-canonical signaling pathway by measuring decrease in p100 phosphorylation at 10 uM after 3 hrs by Western blot analysis; assay type: cell-based
[21] = biological target: T2, Toll-like receptor 4; assay: Antagonist activity at TLR4 in human THP1 cells assessed as inhibition of LPS-stimulated NF-kB non-canonical signaling pathway by measuring decrease in RelB expression at 10 uM after 3 hrs by Western blot analysis; assay type: cell-based
[22] = tested on: THP-1; assay: Effect on RelB protein expression in human THP1 cells at 10 uM after 3 hrs by Western blot analysis; assay type: functional, cell-based

Chain of Transcription factor p65 (Homo sapiens) (Q04206 whole entry): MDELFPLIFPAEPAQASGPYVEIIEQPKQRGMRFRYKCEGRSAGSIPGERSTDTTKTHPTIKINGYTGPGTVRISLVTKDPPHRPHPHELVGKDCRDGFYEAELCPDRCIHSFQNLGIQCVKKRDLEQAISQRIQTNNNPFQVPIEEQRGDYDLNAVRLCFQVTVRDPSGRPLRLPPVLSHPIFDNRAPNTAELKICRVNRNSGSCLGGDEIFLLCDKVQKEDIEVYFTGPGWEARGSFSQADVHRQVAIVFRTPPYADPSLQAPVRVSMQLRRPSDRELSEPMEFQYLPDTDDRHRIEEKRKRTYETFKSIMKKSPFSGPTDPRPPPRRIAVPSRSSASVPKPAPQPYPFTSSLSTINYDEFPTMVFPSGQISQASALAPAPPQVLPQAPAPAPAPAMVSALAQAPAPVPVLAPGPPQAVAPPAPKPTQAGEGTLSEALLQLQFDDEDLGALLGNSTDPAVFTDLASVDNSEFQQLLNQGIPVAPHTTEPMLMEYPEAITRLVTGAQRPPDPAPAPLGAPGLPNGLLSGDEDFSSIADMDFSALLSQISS
T2 sequence (O00206 whole entry): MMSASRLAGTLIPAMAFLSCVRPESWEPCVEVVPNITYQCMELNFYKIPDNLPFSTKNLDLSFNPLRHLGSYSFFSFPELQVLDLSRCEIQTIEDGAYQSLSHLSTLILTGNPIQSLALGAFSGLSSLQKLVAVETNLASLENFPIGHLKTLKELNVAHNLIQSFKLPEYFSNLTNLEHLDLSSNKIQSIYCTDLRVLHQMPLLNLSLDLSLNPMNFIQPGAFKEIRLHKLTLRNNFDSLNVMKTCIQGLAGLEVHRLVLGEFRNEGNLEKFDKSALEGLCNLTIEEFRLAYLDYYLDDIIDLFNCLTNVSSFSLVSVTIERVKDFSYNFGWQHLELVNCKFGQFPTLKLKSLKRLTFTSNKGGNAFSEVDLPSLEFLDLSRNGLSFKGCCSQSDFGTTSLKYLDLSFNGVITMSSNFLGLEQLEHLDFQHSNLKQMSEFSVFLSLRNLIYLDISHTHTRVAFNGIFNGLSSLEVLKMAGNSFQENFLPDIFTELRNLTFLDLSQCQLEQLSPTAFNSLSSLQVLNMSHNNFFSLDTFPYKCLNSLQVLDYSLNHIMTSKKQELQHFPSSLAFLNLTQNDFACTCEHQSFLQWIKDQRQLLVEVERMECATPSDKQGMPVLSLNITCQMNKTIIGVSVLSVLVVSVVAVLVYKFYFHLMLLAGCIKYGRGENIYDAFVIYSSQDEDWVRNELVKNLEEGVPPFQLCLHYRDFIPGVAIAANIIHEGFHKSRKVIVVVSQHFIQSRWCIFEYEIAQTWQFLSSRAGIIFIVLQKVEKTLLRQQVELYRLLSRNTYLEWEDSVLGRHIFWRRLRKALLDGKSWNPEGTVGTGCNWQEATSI
Chain of Toll-like receptor 3 (Homo sapiens) (O15455 whole entry): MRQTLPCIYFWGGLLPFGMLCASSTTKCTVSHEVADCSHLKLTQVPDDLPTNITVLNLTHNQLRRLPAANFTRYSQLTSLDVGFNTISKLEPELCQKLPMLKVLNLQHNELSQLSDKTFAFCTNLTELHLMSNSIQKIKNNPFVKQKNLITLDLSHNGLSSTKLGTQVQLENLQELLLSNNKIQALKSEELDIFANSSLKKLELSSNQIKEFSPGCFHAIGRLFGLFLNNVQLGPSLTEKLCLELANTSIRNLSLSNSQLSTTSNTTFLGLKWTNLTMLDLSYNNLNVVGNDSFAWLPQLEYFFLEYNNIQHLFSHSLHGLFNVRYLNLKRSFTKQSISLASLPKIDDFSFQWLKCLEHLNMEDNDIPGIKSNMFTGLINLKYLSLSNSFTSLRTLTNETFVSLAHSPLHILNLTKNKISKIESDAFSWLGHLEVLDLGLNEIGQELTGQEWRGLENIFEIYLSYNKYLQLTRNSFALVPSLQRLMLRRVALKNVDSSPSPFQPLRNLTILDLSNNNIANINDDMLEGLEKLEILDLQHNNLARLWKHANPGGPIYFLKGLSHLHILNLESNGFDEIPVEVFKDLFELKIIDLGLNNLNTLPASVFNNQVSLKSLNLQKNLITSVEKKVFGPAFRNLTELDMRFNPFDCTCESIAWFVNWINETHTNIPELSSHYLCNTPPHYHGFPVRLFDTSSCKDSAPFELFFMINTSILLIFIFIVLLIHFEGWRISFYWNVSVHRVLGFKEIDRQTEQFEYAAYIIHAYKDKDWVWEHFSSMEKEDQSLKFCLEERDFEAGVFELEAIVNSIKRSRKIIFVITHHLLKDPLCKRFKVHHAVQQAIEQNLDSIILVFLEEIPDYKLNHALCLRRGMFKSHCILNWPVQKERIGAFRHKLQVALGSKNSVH
Chain of Toll-like receptor 2 (Homo sapiens) (O60603 whole entry): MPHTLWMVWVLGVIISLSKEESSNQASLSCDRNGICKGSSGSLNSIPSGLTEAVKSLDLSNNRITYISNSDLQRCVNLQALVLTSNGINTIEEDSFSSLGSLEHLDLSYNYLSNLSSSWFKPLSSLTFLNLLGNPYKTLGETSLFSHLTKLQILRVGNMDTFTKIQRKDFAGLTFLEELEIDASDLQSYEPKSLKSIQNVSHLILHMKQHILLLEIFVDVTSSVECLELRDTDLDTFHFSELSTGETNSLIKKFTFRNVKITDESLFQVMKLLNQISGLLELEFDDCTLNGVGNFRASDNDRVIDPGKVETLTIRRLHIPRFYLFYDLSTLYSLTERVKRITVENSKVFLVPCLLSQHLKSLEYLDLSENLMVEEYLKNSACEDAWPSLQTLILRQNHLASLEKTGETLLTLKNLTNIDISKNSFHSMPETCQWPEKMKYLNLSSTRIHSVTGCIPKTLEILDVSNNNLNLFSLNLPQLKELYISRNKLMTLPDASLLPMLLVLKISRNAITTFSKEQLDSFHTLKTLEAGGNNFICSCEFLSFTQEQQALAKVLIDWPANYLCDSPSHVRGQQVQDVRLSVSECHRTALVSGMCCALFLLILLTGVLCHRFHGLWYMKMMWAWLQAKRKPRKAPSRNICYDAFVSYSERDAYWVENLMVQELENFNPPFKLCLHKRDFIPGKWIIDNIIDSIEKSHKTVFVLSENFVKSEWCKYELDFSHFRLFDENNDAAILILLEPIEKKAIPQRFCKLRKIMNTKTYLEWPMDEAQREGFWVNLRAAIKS

SMILES | inhibition [1] | inhibition [2] | inhibition [3] | Activity [4] | Activity [5] | inhibition [6] | inhibition [7] | Activity [8] | inhibition [9] | EC50 [10] [µM] | inhibition [11] | CC10 [12] [µM] | inhibition [13] | EC10 [14] [µM] | Activity [15] | Activity [16] | inhibition [17] | inhibition [18] | inhibition [19] | inhibition [20] | also measured
CC(=O)[C@]1(O)CC[C@@]2(O)[C@]1(C)[C@H](OC(=O)c1ccc(O)cc1)C[C@@H]1[C@@]3(C)CC[C@H](OC(=O)CCl)CC3=CC[C@]12O | inactive | inactive | Active | inactive | Active | Active | Active | Active | inactive | 3.27 | Active | > 10 | inactive | > 10 | Active | inactive | inactive | Active | inactive | inactive | inhibition [21]: inactive; Activity [22]: inactive
COc1ccc(/C=C/C(=O)O[C@H]2CC[C@@]3(C)C(=CC[C@]4(O)[C@@H]3C[C@@H](OC(=O)/C=C(\C)C(C)C)[C@@]3(C)[C@]4(O)CC[C@@]3(O)C(C)=O)C2)cc1 | inactive | inactive | Active | inactive | Active | Active | Active | Active | inactive | 3.95 | Active | > 10 | inactive | > 10 | Active | inactive | inactive | Active | inactive | inactive | inhibition [21]: inactive; Activity [22]: inactive
